In patent publication US7265106B2, “Method for isolating (R)-tofisopam” (Vela Aquisition Corporation, priority 2003, dated 2007):
Converted amounts (≈) assume the structure as drawn.

Assay: physchem
Type: physicochemical
Settings: organic solvent or mixture

CCC1C(C)=NN=C(c2ccc(OC)c(OC)c2)c2cc(OC)c(OC)cc21 (racemic) [racemic tofisopam, 1-(3,4-dimethoxyphenyl)-4-methyl-5-ethyl-7,8-dimethoxy-5H-2,3-benzodiazepine]
solubility: ~136 mg/mL (≈ 354 mM)
